Experimental data from publication PMC5904165, “Insight into the cold adaptation and hemicellulose utilization of Cladosporium neopsychrotolerans from genome analysis and biochemical characterization” (Scientific Reports, 2018).

Key:
Xyl43A [1] = target: T1, Xyl43A; assay: inhibition of pNPX hydrolysis, Dixon plot; assay type: biochemical, Cladosporium neopsychrotolerans; conditions: pNPX substrate, McIlvaine buffer pH 6.8, room temperature, 10 min; mode not stated
T1 construct: intracellular enzyme

Xyl43A [2] = tested on: T1, Xyl43A; assay: p-nitrophenol release, Michaelis-Menten fit; assay type: biochemical, Cladosporium neopsychrotolerans; conditions: 35 °C (optimum), optimal pH; 1-10 mM pNPX used, so the table's unit mg/mL may be doubtful
Source text: p-nitrophenol release, Michaelis-Menten fit on Xyl43A

SMILES	Ki (Xyl43A [1])	Xyl43A / 35 °C (Topt) (Xyl43A [2])
OC1OC[C@@H](O)[C@H](O)[C@H]1O (stereo partly drawn) [D-xylose]	43.3 mM	–
O=[N+]([O-])c1ccc(O[C@@H]2OC[C@@H](O)[C@H](O)[C@H]2O)cc1 [pNPX]	–	2.73 ± 0.37 mg/mL
